# Results from patent publication US20160279190A1, “MODULATION OF AXON DEGENERATION” (GENENTECH, INC., priority 2008, published 2016).
# Entries after “also recorded” stand apart in the source; their conditions may differ. Starred links: 1 amine or outer side, 2 acyl side, 3 side chain; linkers in the order of their positions; H or OH if unused. Positions of bridges follow the written chain, without caps; N, C: chain ends. Non-standard residues stand in square brackets, D forms with d. Residues, ends and D or L forms follow the SMILES beside them. Chains are numbered I, II in the order given. Actinocin(9to1) = Cc1c2oc3c(C)ccc(C(=O)[*:1])c3nc-2c(C(=O)[*:2])c(N)c1=O; NMeV = CN[C@H](C(=O)O)C(C)C; Sar = CNCC(=O)O
# Assays:
# DRGs [1] = experiment: Campenot chamber local axon degeneration, anti-NGF in axon compartment; assay type: cell-based, mouse; conditions: for Axon Compartment (axon protected when inhibitor is in axon compartment) / Cell Body Compartment (axon protected when inhibitor is in cell body compartment): anti-NGF in axon compartment, 28 hours
# Description: Teflon dividers (Tyler Research) were cleaned by washing in water and wiping them clean of any residual grease. Dividers were then soaked in Nochromix (Godax Laboratories)/sulfuric acid overnight, rinsed five times in distilled and autoclaved water (SQ water), boiled for 30 minutes, and then air-dried before use.
# Mouse laminin (5 μg/ml in sterile filtered water; Invitrogen) was added to PDL coated 35 mm dishes (BD Biosciences) and they were incubated for 1 hour at 37° C., followed by two rinses in SQ water. The dishes were vacuum-dried and then air-dried in a laminar flow hood for 15 minutes. Prepared dishes were then scored with a pin rake (Tyler Research). […] High vacuum grease (VWR) was added to each Teflon divider under a dissection scope. The laminin coated PDL dishes were inverted and dropped onto the Teflon divider, with additional pressure added by use of a toothpick in the non-track-containing regions. Dishes were incubated for 1 hour at 37° C. Five hundred microliters of NBM+MC (50 ng/ml NGF) solution was added to each of the side compartments, and a grease barrier was added in front of the center cell slot.
# Free E13.5 spinal cords were dissected from mouse embryos and placed into NBM+MC (25 ng/ml NGF) solution. DRGs were detached from the spinal cord with a tungsten needle. An NBM+MC-lubricated P200 pipette was used to move DRGs into a 1.5 ml tube. DRGs were pelleted with a tabletop centrifuge for 30 seconds. The supernate was discarded and 0.05% Trypsin/EDTA (cold) was added. The pellet was resolubilized with a pipette and incubated at 37° C. for 15 minutes with constant agitation (650 RPM). The sample was again centrifuged and the supernate discarded. The pellet was resuspended in warm NBM+MC (50 ng/ml NGF) solution and triturated with a flamed glass pipette 20 times, followed by trituration with a fire-bored glass pipette another 20 times. The samples were again centrifuged and the resulting pellets were resuspended in 0.5 ml NBM+MC (50 ng/ml NGF) solution. The cells were diluted to a final concentration of 2.5×10^6 cells/ml. The cell suspensions were loaded into a 1 ml syringe with a 22 gauge needle. The center slot of the Campenot divider was filled using the syringe (to a volume of at least 50 μl). The Campenot chamber was incubated overnight at 37° C. 2.5 ml NGF+MC (50 ng/ml NGF) solution was added to the center compartment and the grease gate was removed. The outer medium (cell body compartment) was replaced after three days with 2.5 ml NBM+MC medium (with 25 ng/ml NGF). After five days in culture, one distal compartment was washed three times with warmed NBM+MC (no NGF) solution. After the third wash, 500 μl NBM+MC (no NGF) solution was added to the axon compartment in combination with either 0.5% DMSO or an inhibitor. The cell body compartment was replaced with 2.5 ml NBM+MC medium (with 25 ng/ml NGF) containing either 0.5% DMSO or inhibitor.
# After 28 hours of anti-NGF antibody treatment, 8% PFA/30% sucrose solution (see above) was added directly to the culture medium at a 1:1 dilution and incubated for 30 minutes. The Teflon divider was removed after the first 15 minutes of addition. The system was washed once with 2.5 ml PBS prior to immunostaining. Neurons were blocked in 5% BSA/0.2% triton in PBS for 30 minutes. The primary antibody Tuj1 (Covance) was added to a final dilution of 1:1000 in PBS containing 2% BSA and incubated overnight at 4° C. The dish was washed once with PBS. […] The dish was washed twice with PBS, and a 22×22 mm coverslip (VWR) was added with 350 μl of fluoromount G (Electron Microscopy Sciences). The neurons were visualized by use of a fluorescence microscope.
# As described above, E13.5 DRGs were isolated and grown for 5 days in a Campenot chamber.
# DRGs [2] = experiment: anti-NGF antibody (NGF withdrawal) screen for inhibitors of neuron or axon degeneration; assay type: cell-based, mouse; conditions: inhibitor 100 μM or 10 μM added 1 hour before 25 μg/ml anti-NGF antibodies; 20 hours; actin staining
# Description: The anti-NGF antibody model described above in Example 1 was used in a screen for inhibitors of neuron or axon degeneration. A library of more than 400 small molecules (Tocris Bioscience) was tested to see which, if any, modulate degeneration observed in the presence of anti-NGF antibodies.
# Mouse E13.5 embryos were dissected and placed into L15 medium (Invitrogen). The spinal cord was dissected out from the embryos with DRGs attached. The spinal cords with DRGs attached were placed into L15 medium+5% goat serum (Gibco) on ice. The DRGs were removed using a tungsten needle and the remaining spinal cord was disposed of. Eight well slides were filled with N3-F12 solution (23 ml Ham's F12, 1 ml N3 supplement, and 1 ml 1 M glucose) to which was added 25 ng/ml NGF (Roche). (N3 supplement was made by dilution of N3 100× concentrate, which was made by mixing the following ingredients, in the following order: 5.0 ml Hank's buffered saline solution (HBSS; Ca, Mg free; Invitrogen), 1.0 ml bovine serum albumin (10 mg/ml in HBSS=150 μm), 2.0 ml Transferrin (T1147-1G, human, 100 mg/ml in HBSS=1.1 mM), 1.0 ml sodium selenite (S9133-1MG, 0.01 mg/ml in HBSS=58 μM), 0.4 ml putrescine dihydrochloride (P5780-5G, 80 mg/ml in HBSS=500 mM), 0.2 ml progesterone (P8783-5G, 0.125 mg/ml in absolute ethanol=400 μM), 0.02 ml corticosterone (C2505-500MG, 2 mg/ml in absolute ethanol=5.8 mM), 0.1 ml triiodothyonine, sodium salt (T6397-100MG, 0.2 mg/ml in 0.01 N NaOH=300 μM), 0.4 ml insulin (16634-250MG, bovine pancreas, 241 U/mg, 25 mg/ml in 20 mM HCl=4.4 mM), for a total volume of 10.02 ml (can be stored at −20° C.). An N3 supplement stock was made by combining the following: 10 ml Pen/Strep (100×, Gibco), 10 ml glutamine (200 mM, Gibco), 10 ml MEM vitamins (100×, Gibco), 10 ml N3 concentrate (100×, see above), for a total volume of 40 ml. The mixture was filter sterilized using a 0.22 μm filter, and 1-2 ml aliquots were stored at −20° C.).
# The DRGs were sectioned into halves, and placed in the center of each well of an 8-chamber slide (BD Biocoat PDL/Laminin coated glass, Becton Dickinson). The DRGs were permitted to attach to the slide at room temperature for 5-10 minutes, followed by an overnight incubation at 37° C. Inhibitors of choice were added at a concentration of 100 μM (top row) or 10 μM (bottom row) 1 hour before adding anti-NGF antibodies. The anti-NGF antibodies were added to the right half of the slide (4 wells) at a concentration of 25 μg/ml. After incubation for 20 hours at 37° C., the slides were fixed with 30% sucrose/8% paraformaldehyde (PFA) by adding 250 μl of the fix solution directly to the 250 μl of culture medium. (To make the 30% sucrose/8% PFA solution, the following ingredients were added to a 600 ml beaker including a stir bar: 250 ml 16% PFA (cat#15710-S, Electron Microscopy Sciences), 50 ml 10×PBS pH 7.4, and 150 g sucrose. The solution was mixed under low heat until dissolved, and then 6-8 drops of 1 M NaOH were added to bring the pH to 7.4. The volume was then brought to 500 ml with water in a graduated cylinder. The solution was mixed well, placed in aliquots, and frozen.) The slides were fixed for 30 minutes, followed by washing once with PBS. All cells were labeled with an actin stain (Alexa-568 conjugated phalloidin; 1:40; Invitrogen), a membrane dye (DiO; 1:200; Invitrogen), and a DNA stain (Hoechst 33258; 1:10,000; Invitrogen) in 0.1% Triton and 1% goat serum for 2 hours at room temperature. […]
# DRG explants = experiment: pan-JNK inhibitors in DRG explants, NGF withdrawal assay; assay type: cell-based; conditions: anti-NGF plus inhibitor (FIG. 46)
# Description: If DLK inhibition protects neurons from degeneration through limiting the phosphorylation of JNK2 and JNK3, then inhibitors of JNK2 or JNK3 should also protect neurons from cell death and axon degeneration. The ability of direct JNK inhibition to protect neurons against NGF withdrawal-dependent degeneration was also assessed. DRG explants were treated with anti-NGF and either pan-JNK inhibitor JNKV or JNKVIII, prior to assessment in the NGF withdrawal assay described above.
# [3] = inhibitor 15 μM, listed as Act D
smiles,measurement,setting,value
COc1ccc(CNC(=O)Nc2ncc([N+](=O)[O-])s2)cc1 [AR-A014418],Axon Compartment (axon protected when inhibitor is in axon compartment),DRGs [1]; inhibitor 20 μM,No (1)
same,Cell Body Compartment (axon protected when inhibitor is in cell body compartment),DRGs [1]; inhibitor 20 μM,Yes (1)
"Cc1c2oc3c(C)ccc(C(=O)N[C@@H]4C(=O)N[C@H](C(C)C)C(=O)N5CCC[C@H]5C(=O)N(C)CC(=O)N(C)[C@@H](C(C)C)C(=O)O[C@@H]4C)c3nc-2c(C(=O)N[C@@H]2C(=O)N[C@H](C(C)C)C(=O)N3CCC[C@H]3C(=O)N(C)CC(=O)N(C)[C@@H](C(C)C)C(=O)O[C@@H]2C)c(N)c1=O [Actinomycin D] (I: T[dV]P[Sar][NMeV] / II: T[dV]P[Sar][NMeV]; ester I:1-I:C, II:1-II:C; linker I:N-II:N via Actinocin(9to1))",formation of varicosities in locally NGF-deprived axons,"DRGs [1]; cell body inhibitors added to cell body compartment: 30 μM SB415, 15 μM Act D","large number of axons with varicosities, as well as fragmented axons"
same,Axon Compartment (axon protected when inhibitor is in axon compartment),DRGs [1]; inhibitor 15 μM,No (4)
same,Cell Body Compartment (axon protected when inhibitor is in cell body compartment),DRGs [1]; inhibitor 15 μM,Yes (4)
same,Axon Compartment (axon protected when inhibitor is in axon compartment),DRGs [1]; [3],failed to prevent degeneration
same,Cell Body Compartment (axon protected when inhibitor is in cell body compartment),DRGs [1]; [3],did not degenerate; also recorded: protected from local degeneration
OC(CN1CCNCC1)Cn1c2ccc(Br)cc2c2cc(Br)ccc21 (centres unmarked) [Bax Channel Blocker],Comments (observations on protection against neurodegeneration upon NGF withdrawal),DRGs [2],Cell bodies detach
C[C@@H]1C[C@@H]([C@H](O)CC2CC(=O)NC(=O)C2)C(=O)[C@@H](C)C1 [Cycloheximide],Axon Compartment (axon protected when inhibitor is in axon compartment),DRGs [1]; inhibitor 5 μM,No (2)
same,Cell Body Compartment (axon protected when inhibitor is in cell body compartment),DRGs [1]; inhibitor 5 μM,Yes (2)
C=C[C@@]1(C)CC(=O)[C@]2(O)[C@@]3(C)[C@@H](O)CCC(C)(C)[C@@H]3[C@H](O)[C@H](OC(C)=O)[C@@]2(C)O1 [Forskolin],Axon Compartment (axon protected when inhibitor is in axon compartment),DRGs [1]; inhibitor 3 μM,Yes (2)
same,Cell Body Compartment (axon protected when inhibitor is in cell body compartment),DRGs [1]; inhibitor 3 μM,Yes (2)
O=C1NC(=O)C(c2cn(CCCO)c3ncccc23)=C1c1cnccn1 [GSK3 inhibitor XI],Axon Compartment (axon protected when inhibitor is in axon compartment),DRGs [1]; inhibitor 30 μM,No (2)
same,Cell Body Compartment (axon protected when inhibitor is in cell body compartment),DRGs [1]; inhibitor 30 μM,Yes (2)
CCOc1nc(NC(=O)Cc2cc(OC)ccc2OC)cc(N)c1C#N [JNKVIII],most protective concentration,DRG explants,4 µM
same,protection of DRG explants from NGF-dependent degeneration,DRG explants,able to protect DRG explants from NGF-dependent degeneration
N#C/C(=C1/Nc2ccccc2S1)c1ccnc(NCCc2cccnc2)n1 [JNKV],most protective concentration,DRG explants,5 µM
same,protection of DRG explants from NGF-dependent degeneration,DRG explants,able to protect DRG explants from NGF-dependent degeneration
C=C[C@@]1(C)CC(=O)[C@]2(O)[C@@]3(C)[C@@H](O)CCC(C)(C)[C@@H]3[C@H](OC(=O)CCN(C)C)[C@H](OC(C)=O)[C@@]2(C)O1 [NKH 477],Comments (observations on protection against neurodegeneration upon NGF withdrawal),DRGs [2],Partial
C[S+]([O-])c1ccc(-c2nc(-c3ccc(F)cc3)c(-c3ccncc3)[nH]2)cc1.Cl (centres unmarked) [SB 203580 HCI],Comments (observations on protection against neurodegeneration upon NGF withdrawal),DRGs [2],Partial
CC(NC(=O)/C(C#N)=C/c1ccc(O)c(O)c1)c1ccccc1 (centres unmarked) [Tyrphostin B44],Comments (observations on protection against neurodegeneration upon NGF withdrawal),DRGs [2],Partial
CCN(c1ccccc1)c1cc(NC)[n+](C)c(C)n1.[Cl-] [ZD7288],Axon Compartment (axon protected when inhibitor is in axon compartment),DRGs [1]; inhibitor 5 μM,No (3)
same,Cell Body Compartment (axon protected when inhibitor is in cell body compartment),DRGs [1]; inhibitor 5 μM,Yes (3)
